Where a name gives a salt, the structure may show the parent alone.
Target: Factor Xa (Homo sapiens, UniProt P00742)
Experiment: Enzyme assay with purified enzyme and peptide-p-nitroanilide substrate (IC50, apparent Ki)
Assay type: biochemical
Conditions: library product after deprotection with 20% TFA; read-out: IC50 against Factor Xa
Description: All enzyme assays are carried out at room temperature in 96-well microtiter plates using a final enzyme concentration of 1 nM. The concentrations of factor Xa and thrombin are determined by active site titration and the concentrations of all other enzymes are based on the protein concentration supplied by the manufacturer. Compounds according to the invention are dissolved in DMSO, diluted with their respective buffers and assayed at a maximal final DMSO concentration of 1.25%. Compound dilutions are added to wells containing buffer and enzyme and pre-equilibrated for […]. The enzyme reactions are initiated by the addition of substrate and the color developed from the hydrolysis of the peptide-p-nitroanilide substrates is monitored continuously for 5 minutes at 405 nm on a Vmax microplate reader (Molecular Devices). Under these conditions, less than 10% of the substrate is utilized in all assays. […] The apparent Ki values are then determined according to the Cheng-Prusoff equation (IC50=Ki [1+[S]/Km]) assuming competitive inhibition kinetics.

Factor Xa, sequence (P00742 235-488 limits assumed): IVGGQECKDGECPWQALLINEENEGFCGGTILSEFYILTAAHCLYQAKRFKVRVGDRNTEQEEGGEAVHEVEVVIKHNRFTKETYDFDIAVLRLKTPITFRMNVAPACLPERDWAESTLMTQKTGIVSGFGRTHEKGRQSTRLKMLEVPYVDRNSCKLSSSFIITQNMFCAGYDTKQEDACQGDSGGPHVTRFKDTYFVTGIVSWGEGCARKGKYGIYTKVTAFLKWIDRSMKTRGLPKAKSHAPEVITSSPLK
Factor Xa, sequence (P00742 41-179 partner limits assumed): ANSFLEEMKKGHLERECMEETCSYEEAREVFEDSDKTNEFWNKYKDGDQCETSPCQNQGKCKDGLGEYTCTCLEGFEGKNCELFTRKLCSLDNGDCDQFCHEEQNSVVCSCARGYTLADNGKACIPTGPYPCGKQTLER

`O=C1[C@@H](NS(=O)(=O)c2cc3ccc(Cl)cc3s2)CCN1Cc1cc2ncccc2[nH]1` [Example 46, 6-Chloro-benzo[b]thiophene-2-sulfonic Acid [2-oxo-1-(1H-Pyrrolo[3,2-b]pyridin-2-ylmethyl)-pyrrolidin-3-(S)-yl]-amide Trifluoroacetate] gave an IC50 of under 500 nM.

— patent US6602864B1, “Sulfonic acid or sulfonylamino N-(heteroaralkyl)-azaheterocyclylamide compounds” (Aventis Pharma Deutschland GmbH, priority 1996, dated 2003)
